Values of other authors as cited in patent US20230330068A1, “GEL COMPOSITION OF LULICONAZOLE FOR TREATMENT OF VAGINAL FUNGAL INFECTIONS AND ITS MANUFACTURING PROCESS” (priority 2023, published 2023).

Tested on: Candida
Conditions: anticandidal activity; recent findings from the literature

minimum inhibitory concentration (MIC) range: 0.031 to 0.13 mg/mL
Structure (SMILES): N#C/C(=C1/SC[C@@H](c2ccc(Cl)cc2Cl)S1)n1ccnc1 [Luliconazole]
